# Tests used:
# 19-9-11 iPSCs = experiment: Angioblast differentiation of hPSCs, flow cytometry of CD34 and CD31 at day 5; format: cell-based, human; conditions: for induction of angioblast differentiation (percentage of CD34^+CD31^+ cells): 0.6 μM CHIR98014 or 0.6 μM BIO-acetoxime 2 days in LaSR medium, then StemPro-34 3 days, no VEGF, compared with 6 μM CHIR99021
# Method: Cells were then cultured in mTeSR1, changed daily. At day 0, cells were treated with 6-10 μM CHIR99021 (Selleckchem) for 2 days in LaSR basal medium, which consists of Advanced DMEM/F12, 2.5 mM GlutaMAX, and 60 μg/ml ascorbic acid (Sigma, A8960). […] Cells were dissociated into single cells with Accutase for 10 min and then fixed with 1% paraformaldehyde for 20 min at room temperature and stained with primary and secondary antibodies (Table 2) in PBS plus 0.1% Triton X-100 and 0.5% BSA. Data were collected on a FACSCaliber flow cytometer (Becton Dickinson) and analyzed using FlowJo.
# 19-9-11 ishcat iPSCs = experiment: Flow cytometry analysis of Brachyury expression during differentiation; format: cell-based, human; conditions: 6 μM CHIR99021, in the absence of dox
# Method: FIG. 8 Knockdown of β-catenin abolishes endothelial differentiation of hPSCs 19-9-11 ishcat iPSCs were cultured in LaSR basal medium containing 6 μM CH and/or 2 μg/ml doxycycline for 2 days. Flow cytometry analysis of Brachyury expression was performed after 2 days of differentiation.
# Cells were dissociated into single cells with Accutase for 10 min and then fixed with 1% paraformaldehyde for 20 min at room temperature and stained with primary and secondary antibodies (Table 2) in PBS plus 0.1% Triton X-100 and 0.5% BSA. Data were collected on a FACSCaliber flow cytometer (Becton Dickinson) and analyzed using FlowJo.
# [1] = system: hPSC-derived endothelial cells; experiment: Flow cytometry analysis of ICAM-1 surface expression after TNF-α treatment; format: cell-based, human; conditions: 10 ng/mL TNF-α for 16 hours versus unstimulated cells
# Source text: FIG. 6 Characterization of endothelial cells derived from hPSCs (A) 19-9-11 iPSCs were differentiated as illustrated in FIG. 3A using LaSR basal medium. At day 5, CD34^+ cells were enriched and cultured in endothelial medium on laminin-coated plates. At different time points, the cell numbers were counted. (B-D) the purified day 60 endothelial cells were immunostained with (B) VE-cadherin and CD31, and tested for (C) tube-forming ability upon VEGF treatment and the ability to (D) uptake acetylated low-density lipoprotein (AcLDL). (E) Flow cytometry analysis of surface protein expression of ICAM-1 of untreated cells or cells treated with 10 ng/mL TNF-α for 16 hours. Error bars represent the s.e.m. of three independent experiments. (F-G) Barrier phenotype of the hPSC-derived endothelial cells. […] Barrier function was assessed by measuring transendothelial electrical resistance (TEER) 48 hours after seeding. […] (F) Transendothelial electrical resistance (TEER) was measured as a function of time, and normalized to the initial TEER value (36.7±4.3 Ωcm^2. (G) TEER and fluorescent dextran permeability were measured 24 hours after plating. Error bars represent the s.e.m. of three biological samples. ** p<0.005, VEGF (or oME) versus control; t test. […]
# [2] = system: hPSC-derived endothelial cells; conditions: 50 ng/ml VEGF, 24 h; day 60 endothelial cells
# Method: To assess the formation of capillary structures, 1×10^5 endothelial cells in 0.4 ml EGM-2 medium (Lonza) supplemented with 50 ng/ml VEGF (R&D Systems) were plated into one well of 24-well tissue culture plate pre-coated with 250 μl Matrigel™ (BD Bioscience). Tube formation was observed by light microscopy after 24 h of incubation.
# [3] = system: hPSC-derived endothelial cells; experiment: Monolayer integrity: 40-kDa FITC-dextran permeability; format: cell-based, human; conditions: 100 ng/mL VEGF or 10 μM oME, 24 hr of treatment, versus control
# [4] = system: hPSC-derived endothelial cells; experiment: Monolayer integrity: transendothelial electrical resistance (TEER); format: cell-based, human; conditions: 100 ng/mL VEGF or 10 μM oME, versus control
# H9 cells = experiment: Angioblast differentiation of hPSCs with PD0325901 addition, flow cytometry of CD34 and CD31 at day 5; format: cell-based, human; conditions: 1 μM PD0325901 added during differentiation induced with 6 μM CHIR99021
# Method: FIG. 2 CD34^+CD31^+ angioblast differentiation induced by Gsk3 inhibitors in hPSCs is β-catenin dependent. […] At day 5, the percentage of CD34^+CD31^+ cells in culture was assessed by flow cytometry. (B) 19-9-11 iscramble and 19-9-11 […] cultured in mTeSR1 containing 2 μg/ml doxycycline. After 3 days, mRNA was collected and β-catenin expression evaluated by qPCR. Error bars represent the s.e.m. of 3 biological replicates. # […] versus iscramble; […] cultured in LaSR medium containing 6 μM CHIR99021 for 2 days before exposure to StemPro-34 medium for 3 days, with 2 μg/ml dox addition at the indicated times. 5 days after initiation of differentiation, cells were analyzed for CD34 and CD31 expression by flow cytometry. Error bars represent the s.e.m. of three independent experiments. […] hPSCs maintained on a MatrigelTM-coated surface in mTeSR1 were dissociated into single cells with Accutase (Life Technologies) at 37° C. for 5 min and then seeded onto a MatrigelTM-coated cell culture dish at 50,000 cell/cm^2 in mTeSR1 supplemented with 5 μM ROCK inhibitor Y-27632 (Selleckchem)(day -3) for 24 hours. Cells were then cultured in mTeSR1, changed daily. […] Data were collected on a FACSCaliber flow cytometer (Becton Dickinson) and analyzed using FlowJo.
molecule,measurement,setting,value
BIO-acetoxime,induction of angioblast differentiation (percentage of CD34^+CD31^+ cells),19-9-11 iPSCs,effectively induced angioblast differentiation to a similar extent as CHIR99021
Cc1c[nH]c(-c2cnc(NCCNc3ccc(C#N)cn3)nc2-c2ccc(Cl)cc2Cl)n1 [CHIR99021],CD31^+CD34^+ angioblasts generated,"19-9-11 iPSCs; 6-10 μM CHIR99021 2 days, then 3 days StemPro-34 without VEGF, day 5",25%
same,CD34^+CD31^+ cells generated,"19-9-11 iPSCs; CHIR99021 (6 μM) 2 days in LaSR basal medium, then 3 days StemPro-34 with or without VEGF, day 5",more than 20%
same,CD34^+CD31^+ cells produced,"19-9-11 iPSCs; LaSR basal medium, CHIR99021 2 days then 3 days without, seeding density 50,000 cells per cm2 at day -3",55%
same,CD34^+CD31^+ cells in 5 days,"19-9-11 iPSCs; single basal medium: LaSR basal medium with CHIR99021 2 days, then 3 days same medium without",25%
same,CD34^+CD31^+ cells in 5 days,"19-9-11 iPSCs; single basal medium: RPMI/B27 or EC medium containing serum, with CHIR99021 2 days, then 3 days without",not supporting differentiation to any detectable CD34^+CD31^+ cells
same,Brachyury expressing cells by day 2,19-9-11 ishcat iPSCs,virtually pure population
CHIR98014,induction of angioblast differentiation (percentage of CD34^+CD31^+ cells),19-9-11 iPSCs,effectively induced angioblast differentiation to a similar extent as CHIR99021
TNFα,expression of ICAM1,[1],greatly increased
VEGF,effect of VEGF treatment on yield of CD34^+CD31^+ cells,"19-9-11 iPSCs; VEGF in StemPro-34 for 3 days after CHIR99021, day 5",did not significantly increase
same,vascular tube formation in Matrigel matrix,[2],formed vascular tubes
same,dextran permeability (40 kD),[3],increase
same,transendothelial electrical resistance (TEER),[4],sustained decrease
"CO[C@@H]1[C@@H]2OP(=O)(O)OC[C@H]2O[C@H]1n1c(Sc2ccc(Cl)cc2)nc2c(N)ncnc21 [8-pCPT-2′O-Me-cAMP, 8-(4-chlorophenylthio)-2′-O-Me-cAMP]",dextran permeability (40 kD),[3],decreased
same,transendothelial electrical resistance (TEER),[4],increased
O=C(NOC[C@H](O)CO)c1ccc(F)c(F)c1Nc1ccc(I)cc1F [PD0325901],effect on CD34^+CD31^+ cell differentiation,H9 cells,substantially diminished
